Experimental findings from ChEMBL document CHEMBL5370537, “Aporphines: A privileged scaffold in CNS drug discovery” (Eur J Med Chem, 2023) are described below.

Assay [1] deals with T1, D(2) dopamine receptor (Homo sapiens, UniProt P14416). Kind of assay: Partial agonist activity at D2R (unknown origin) expressed in HEK293 cells relative to control. Type of assay: functional, cell-based. The conditions noted are these: filed as partial agonist.
The target of assay [2] is 5-hydroxytryptamine receptor 7 (Homo sapiens, UniProt P34969). Kind of assay: Inverse agonist activity at 5-HT7 (unknown origin). It is filed as functional.
Assay [3] has as its target T2, 5-hydroxytryptamine receptor 2A (Homo sapiens, UniProt P28223). Kind of assay: Inverse agonist activity at 5-HT2A (unknown origin). It is filed as functional.
Assay [4] concerns the target T3, 5-hydroxytryptamine receptor 2C (Homo sapiens, UniProt P28335).
T3 sequence (P28335 whole entry): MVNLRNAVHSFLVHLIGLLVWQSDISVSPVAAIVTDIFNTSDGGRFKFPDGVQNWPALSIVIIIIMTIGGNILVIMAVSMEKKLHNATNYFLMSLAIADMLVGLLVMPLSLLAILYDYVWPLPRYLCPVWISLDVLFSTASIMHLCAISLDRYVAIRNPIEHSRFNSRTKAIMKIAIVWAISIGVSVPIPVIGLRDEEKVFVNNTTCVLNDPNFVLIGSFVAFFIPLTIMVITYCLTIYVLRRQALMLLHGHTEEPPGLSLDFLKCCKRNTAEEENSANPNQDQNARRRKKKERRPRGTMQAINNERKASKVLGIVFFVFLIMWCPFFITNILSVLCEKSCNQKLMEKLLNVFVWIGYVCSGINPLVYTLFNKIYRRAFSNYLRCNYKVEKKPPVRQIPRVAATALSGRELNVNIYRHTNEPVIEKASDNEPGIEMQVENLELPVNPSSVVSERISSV
Kind of assay: Antagonist activity at 5-HT2C (unknown origin). Type of assay: functional.

Assay [5] concerns the target T1, D(2) dopamine receptor. Kind of assay: Antagonist activity at D2R (unknown origin). Type of assay: functional.
The target of a further assay is Acetylcholinesterase (Electrophorus electricus, UniProt O42275). Kind of assay: Inhibition of Electrophorus electricus AChE using ATCI as substrate pre-incubated for 10 mins followed by substrate addition measured after 5 mins by microplate reader analysis.
The next assay addresses Cholinesterase (Equus caballus, UniProt P81908). Kind of assay: Inhibition of equine serum BuChE using BTCI as substrate pre-incubated for 10 mins followed by substrate addition measured after 5 mins by microplate reader analysis.
A further assay deals with SH-SY5Y. Kind of assay: Neuroprotective activity against human SH-SY5Y cells assessed as increase in BDNF level at 20 uM measured after 48 hrs relative to control. It is filed as functional.
A further assay concerns BV-2. Kind of assay: Inhibition of NO production in LPS-induced mouse BV-2 cells incubated for 24 hrs by Griess reagent based microplate reader analysis. It is filed as functional, cell-based. As to conditions: BV-2, 24 h. For orientation: The Griess reaction detects nitrite, a stable product of nitric oxide.
Assay [6] has as its target 5-hydroxytryptamine receptor 7 (Rattus norvegicus, UniProt P32305). Kind of assay: Displacement of [3H]5-HT from rat 5-HT7 assessed as inhibition constant. For orientation: In a radioligand displacement assay an active substance lowers the binding of a labelled ligand.
The target in a further assay is D(1A) dopamine receptor (Homo sapiens, UniProt P21728). Kind of assay: Antagonist activity at D1R (unknown origin) transfected in HEK293 cells by FLIPR assay.
Assay [7] concerns the target T3, 5-hydroxytryptamine receptor 2C. Kind of assay: Partial agonist activity at human 5-HT2C stably transfected in HEK293T cells measured after 18 to 24 hrs by FLIPR assay. It is filed as functional, cell-based.
For assay [8], the target named is T4, 5-hydroxytryptamine receptor 2C (Homo sapiens) (UniProt P28335).
T4 sequence (whole entry): T3 sequence (P28335 whole entry)
Kind of assay: Partial agonist activity at human 5-HT2C stably transfected in HEK293T cells measured after 18 to 24 hrs by FLIPR assay relative to control. It is filed as functional, cell-based. The conditions noted are these: filed as partial agonist, time 18-24 hrs.

Assay [9] deals with T2, 5-hydroxytryptamine receptor 2A. Kind of assay: Antagonist activity at 5-HT2A (unknown origin) transfected in HEK293 cells by FLIPR assay. Type of assay: functional, cell-based.
The target in assay [10] is Acetylcholinesterase (Electrophorus electricus) (UniProt O42275). Kind of assay: Potency index, ratio of (R)-Stephanine IC50 to test compound IC50 for inhibition of Electrophorus electricus AChE using ATCI as substrate pre-incubated for 10 mins followed by substrate addition measured after 5 mins by microplate reader analysis. The conditions noted are these: time 15.0 min.

For assay [11] the target is unchanged. Kind of assay: Potency index, ratio of (R)-Roemerine IC50 to test compound IC50 for inhibition of Electrophorus electricus AChE using ATCI as substrate pre-incubated for 10 mins followed by substrate addition measured after 5 mins by microplate reader analysis. As to conditions: time 15.0 min.
Assay [12] shares this target. Kind of assay: Potency index, ratio of (S)-Dicentrine IC50 to test compound IC50 for inhibition of Electrophorus electricus AChE using ATCI as substrate pre-incubated for 10 mins followed by substrate addition measured after 5 mins by microplate reader analysis. As to conditions: time 15.0 min.
Assay [13] deals with T2, 5-hydroxytryptamine receptor 2A. Kind of assay: Binding affinity to human 5-HT2A transfected in HEK293 cells assessed as antagonist dissociation constant measured after 1 hrs. Type of assay: cell-based. As to conditions: filed as antagonist.
Assay [14] deals with 5-hydroxytryptamine receptor 2B (Homo sapiens, UniProt P41595). Kind of assay: Binding affinity to human 5-HT2B transfected in HEK293 cells assessed as antagonist dissociation constant measured after 1 hrs. It is filed as cell-based. As to conditions: filed as antagonist.
For assay [15], the target named is T4, 5-hydroxytryptamine receptor 2C (Homo sapiens). Kind of assay: Binding affinity to human 5-HT2C transfected in HEK293 cells assessed as antagonist dissociation constant measured after 1 hrs. It is filed as cell-based. The conditions noted are these: filed as antagonist.
Assay [16] has as its target T5, Alpha-1A adrenergic receptor (Homo sapiens) (UniProt P35348).
T5 sequence (whole entry): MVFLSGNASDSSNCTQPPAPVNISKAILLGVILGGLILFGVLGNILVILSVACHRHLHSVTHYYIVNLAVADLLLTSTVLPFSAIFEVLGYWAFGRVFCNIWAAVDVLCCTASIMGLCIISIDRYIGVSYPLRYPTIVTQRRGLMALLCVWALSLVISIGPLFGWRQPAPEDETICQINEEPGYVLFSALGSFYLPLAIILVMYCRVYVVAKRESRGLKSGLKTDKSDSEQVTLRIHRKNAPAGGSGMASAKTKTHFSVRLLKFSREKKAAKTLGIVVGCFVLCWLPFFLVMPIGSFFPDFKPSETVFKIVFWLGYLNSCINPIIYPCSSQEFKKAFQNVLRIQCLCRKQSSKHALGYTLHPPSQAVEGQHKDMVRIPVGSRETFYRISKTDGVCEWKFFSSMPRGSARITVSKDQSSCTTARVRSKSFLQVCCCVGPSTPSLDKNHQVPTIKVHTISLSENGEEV
Kind of assay: Binding affinity to human alpha1A adrenergic receptors transfected in HEK293 cells assessed as antagonist dissociation constant measured after 1 hrs. Type of assay: cell-based. The conditions noted are these: filed as antagonist.

For assay [17], the target named is T6, Alpha-1B adrenergic receptor (Homo sapiens) (UniProt P35368).
T6 sequence (whole entry): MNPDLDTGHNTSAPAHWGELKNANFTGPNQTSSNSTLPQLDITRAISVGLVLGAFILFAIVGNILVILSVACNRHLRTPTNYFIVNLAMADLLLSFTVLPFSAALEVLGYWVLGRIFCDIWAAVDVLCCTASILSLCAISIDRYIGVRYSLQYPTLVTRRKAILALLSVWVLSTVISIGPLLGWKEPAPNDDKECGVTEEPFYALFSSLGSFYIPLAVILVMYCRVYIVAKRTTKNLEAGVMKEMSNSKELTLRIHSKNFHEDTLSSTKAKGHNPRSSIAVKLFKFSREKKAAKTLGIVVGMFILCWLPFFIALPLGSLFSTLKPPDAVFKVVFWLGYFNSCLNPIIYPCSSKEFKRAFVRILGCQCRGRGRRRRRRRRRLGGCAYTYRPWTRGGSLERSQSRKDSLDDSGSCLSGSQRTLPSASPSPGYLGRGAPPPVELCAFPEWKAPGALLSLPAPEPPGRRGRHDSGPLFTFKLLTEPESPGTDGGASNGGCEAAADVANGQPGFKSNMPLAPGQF
Kind of assay: Binding affinity to human alpha1B adrenergic receptors transfected in HEK293 cells assessed as antagonist dissociation constant measured after 1 hrs. Type of assay: cell-based. The conditions noted are these: filed as antagonist.

In assay [18] the target is T7, Alpha-1D adrenergic receptor (Homo sapiens) (UniProt P25100).
T7 sequence (whole entry): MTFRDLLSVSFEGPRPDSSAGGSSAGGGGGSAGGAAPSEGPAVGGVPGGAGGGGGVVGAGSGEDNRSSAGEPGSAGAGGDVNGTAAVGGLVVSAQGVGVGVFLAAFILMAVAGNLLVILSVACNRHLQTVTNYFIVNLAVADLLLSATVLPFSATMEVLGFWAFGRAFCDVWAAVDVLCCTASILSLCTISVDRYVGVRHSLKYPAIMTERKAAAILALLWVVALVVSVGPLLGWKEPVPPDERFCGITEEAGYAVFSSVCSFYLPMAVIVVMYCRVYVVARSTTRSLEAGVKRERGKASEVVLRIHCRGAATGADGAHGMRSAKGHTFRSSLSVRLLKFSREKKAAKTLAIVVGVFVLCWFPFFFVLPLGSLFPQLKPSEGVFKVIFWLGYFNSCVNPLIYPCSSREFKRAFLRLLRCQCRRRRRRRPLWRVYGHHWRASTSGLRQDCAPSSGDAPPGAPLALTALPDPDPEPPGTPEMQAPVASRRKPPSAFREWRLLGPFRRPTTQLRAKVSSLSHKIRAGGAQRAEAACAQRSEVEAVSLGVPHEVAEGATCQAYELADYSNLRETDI
Kind of assay: Binding affinity to human alpha1D adrenergic receptors transfected in HEK293 cells assessed as antagonist dissociation constant measured after 1 hrs. It is filed as cell-based. The conditions noted are these: filed as antagonist.

Sequence of Cholinesterase (P81908 whole entry): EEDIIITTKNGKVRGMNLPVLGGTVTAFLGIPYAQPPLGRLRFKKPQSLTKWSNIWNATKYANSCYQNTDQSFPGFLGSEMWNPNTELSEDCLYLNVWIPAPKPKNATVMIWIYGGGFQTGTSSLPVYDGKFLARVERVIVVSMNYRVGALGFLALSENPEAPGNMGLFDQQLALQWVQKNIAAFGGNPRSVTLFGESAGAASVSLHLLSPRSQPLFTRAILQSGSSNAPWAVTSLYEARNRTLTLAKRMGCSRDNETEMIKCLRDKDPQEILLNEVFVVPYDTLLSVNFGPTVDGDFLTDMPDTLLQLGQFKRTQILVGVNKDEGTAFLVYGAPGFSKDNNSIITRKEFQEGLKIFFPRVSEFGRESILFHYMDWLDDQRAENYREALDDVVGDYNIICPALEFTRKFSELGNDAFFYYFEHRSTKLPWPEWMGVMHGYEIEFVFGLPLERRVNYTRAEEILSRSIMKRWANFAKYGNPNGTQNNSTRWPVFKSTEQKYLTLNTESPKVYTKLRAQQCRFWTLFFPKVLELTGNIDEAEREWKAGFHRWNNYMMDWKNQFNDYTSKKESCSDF
T2 sequence (P28223 whole entry): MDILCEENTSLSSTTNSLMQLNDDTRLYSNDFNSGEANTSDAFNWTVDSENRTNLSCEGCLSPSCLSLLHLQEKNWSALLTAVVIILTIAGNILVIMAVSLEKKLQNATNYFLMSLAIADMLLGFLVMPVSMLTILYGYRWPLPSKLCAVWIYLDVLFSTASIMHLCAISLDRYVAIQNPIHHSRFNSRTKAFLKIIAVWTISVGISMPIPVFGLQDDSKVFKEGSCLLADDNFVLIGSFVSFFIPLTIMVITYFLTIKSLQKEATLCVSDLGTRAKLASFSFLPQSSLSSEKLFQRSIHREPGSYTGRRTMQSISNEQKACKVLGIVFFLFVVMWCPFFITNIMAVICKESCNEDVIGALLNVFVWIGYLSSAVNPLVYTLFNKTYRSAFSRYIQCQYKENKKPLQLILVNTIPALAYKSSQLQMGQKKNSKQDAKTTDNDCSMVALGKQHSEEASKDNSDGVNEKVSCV
Sequence of Acetylcholinesterase (Electrophorus electricus) (O42275 24-633 limits assumed): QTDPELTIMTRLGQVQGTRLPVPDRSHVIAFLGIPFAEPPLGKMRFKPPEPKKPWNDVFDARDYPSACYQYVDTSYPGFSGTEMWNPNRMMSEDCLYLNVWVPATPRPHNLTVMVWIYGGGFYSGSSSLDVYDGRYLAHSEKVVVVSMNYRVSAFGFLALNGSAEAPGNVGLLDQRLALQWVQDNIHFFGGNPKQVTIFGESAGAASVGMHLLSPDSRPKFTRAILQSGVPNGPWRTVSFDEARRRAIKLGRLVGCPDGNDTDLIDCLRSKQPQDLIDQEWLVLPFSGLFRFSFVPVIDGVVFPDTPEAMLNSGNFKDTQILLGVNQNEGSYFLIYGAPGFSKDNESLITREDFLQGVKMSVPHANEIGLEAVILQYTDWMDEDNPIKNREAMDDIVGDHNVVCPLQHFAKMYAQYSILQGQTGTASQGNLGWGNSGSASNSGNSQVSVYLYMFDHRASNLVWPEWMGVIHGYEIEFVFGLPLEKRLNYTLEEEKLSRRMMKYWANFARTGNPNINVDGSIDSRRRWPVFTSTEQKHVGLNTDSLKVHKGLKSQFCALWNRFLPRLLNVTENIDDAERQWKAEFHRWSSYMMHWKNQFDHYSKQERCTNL
Sequence of Acetylcholinesterase (O42275 whole entry): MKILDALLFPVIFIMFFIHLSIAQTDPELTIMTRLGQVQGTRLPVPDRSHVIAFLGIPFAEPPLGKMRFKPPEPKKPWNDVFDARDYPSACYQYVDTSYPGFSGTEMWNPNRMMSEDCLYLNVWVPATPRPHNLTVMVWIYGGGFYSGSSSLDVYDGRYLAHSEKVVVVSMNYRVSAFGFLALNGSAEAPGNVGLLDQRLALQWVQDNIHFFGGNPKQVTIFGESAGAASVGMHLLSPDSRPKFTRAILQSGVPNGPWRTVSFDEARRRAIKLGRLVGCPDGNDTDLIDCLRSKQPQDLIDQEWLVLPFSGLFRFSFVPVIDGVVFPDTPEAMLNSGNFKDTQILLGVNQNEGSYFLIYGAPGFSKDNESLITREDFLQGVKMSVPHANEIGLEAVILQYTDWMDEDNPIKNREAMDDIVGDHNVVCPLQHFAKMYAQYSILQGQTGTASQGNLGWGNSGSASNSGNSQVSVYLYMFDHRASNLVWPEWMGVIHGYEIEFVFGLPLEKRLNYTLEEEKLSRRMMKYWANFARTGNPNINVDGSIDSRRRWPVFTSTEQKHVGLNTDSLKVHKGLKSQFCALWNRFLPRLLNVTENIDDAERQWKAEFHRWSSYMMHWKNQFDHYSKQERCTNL
T1 sequence (P14416 whole entry): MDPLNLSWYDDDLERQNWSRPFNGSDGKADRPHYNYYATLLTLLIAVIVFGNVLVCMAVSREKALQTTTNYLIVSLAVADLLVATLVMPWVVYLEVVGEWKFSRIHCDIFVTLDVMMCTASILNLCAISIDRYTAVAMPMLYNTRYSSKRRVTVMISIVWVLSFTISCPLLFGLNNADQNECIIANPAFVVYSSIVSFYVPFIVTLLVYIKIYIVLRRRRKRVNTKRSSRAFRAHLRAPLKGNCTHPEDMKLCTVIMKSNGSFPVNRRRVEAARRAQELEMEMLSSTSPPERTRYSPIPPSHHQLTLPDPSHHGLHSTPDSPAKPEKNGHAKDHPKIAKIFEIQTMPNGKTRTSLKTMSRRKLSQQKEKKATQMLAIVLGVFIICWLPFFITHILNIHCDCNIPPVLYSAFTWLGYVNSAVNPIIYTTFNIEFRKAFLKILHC
Sequence of D(1A) dopamine receptor (P21728 whole entry): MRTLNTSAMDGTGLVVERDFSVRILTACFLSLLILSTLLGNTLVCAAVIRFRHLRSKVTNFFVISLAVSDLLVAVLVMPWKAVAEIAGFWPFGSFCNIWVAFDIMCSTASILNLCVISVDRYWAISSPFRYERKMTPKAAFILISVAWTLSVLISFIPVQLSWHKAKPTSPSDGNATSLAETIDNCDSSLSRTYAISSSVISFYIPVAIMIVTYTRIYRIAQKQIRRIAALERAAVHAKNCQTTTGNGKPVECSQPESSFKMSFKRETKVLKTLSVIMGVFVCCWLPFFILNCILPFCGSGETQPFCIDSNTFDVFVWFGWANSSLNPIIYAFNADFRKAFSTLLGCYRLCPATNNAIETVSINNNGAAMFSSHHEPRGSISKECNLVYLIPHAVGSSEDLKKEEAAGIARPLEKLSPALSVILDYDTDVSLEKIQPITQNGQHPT
Sequence of 5-hydroxytryptamine receptor 7 (Rattus norvegicus, UniProt P32305) (P32305 whole entry): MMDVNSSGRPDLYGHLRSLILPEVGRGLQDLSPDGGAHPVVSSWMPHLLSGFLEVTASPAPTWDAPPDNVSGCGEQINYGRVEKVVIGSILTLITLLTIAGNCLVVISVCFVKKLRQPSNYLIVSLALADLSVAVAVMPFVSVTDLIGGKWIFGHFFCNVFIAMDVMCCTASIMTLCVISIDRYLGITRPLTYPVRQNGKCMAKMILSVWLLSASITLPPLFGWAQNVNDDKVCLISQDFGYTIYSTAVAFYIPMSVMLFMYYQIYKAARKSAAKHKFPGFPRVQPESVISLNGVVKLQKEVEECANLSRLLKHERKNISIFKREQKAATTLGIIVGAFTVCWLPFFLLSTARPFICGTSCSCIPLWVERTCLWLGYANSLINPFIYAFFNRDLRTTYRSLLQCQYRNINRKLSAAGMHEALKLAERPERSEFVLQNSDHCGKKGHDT
Sequence of 5-hydroxytryptamine receptor 7 (Homo sapiens, UniProt P34969) (P34969 whole entry): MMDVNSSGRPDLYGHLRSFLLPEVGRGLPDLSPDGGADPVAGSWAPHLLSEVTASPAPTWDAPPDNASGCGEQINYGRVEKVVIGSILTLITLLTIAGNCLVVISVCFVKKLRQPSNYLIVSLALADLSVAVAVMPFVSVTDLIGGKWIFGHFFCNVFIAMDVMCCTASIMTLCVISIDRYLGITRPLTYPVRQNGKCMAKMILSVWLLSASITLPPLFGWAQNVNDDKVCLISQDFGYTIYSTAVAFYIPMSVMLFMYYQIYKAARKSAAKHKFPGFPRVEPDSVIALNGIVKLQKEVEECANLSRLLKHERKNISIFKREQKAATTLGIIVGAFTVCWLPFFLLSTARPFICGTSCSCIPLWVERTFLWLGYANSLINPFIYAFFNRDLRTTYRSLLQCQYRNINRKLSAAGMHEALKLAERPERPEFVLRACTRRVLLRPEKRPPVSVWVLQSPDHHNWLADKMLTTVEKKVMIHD
Sequence of 5-hydroxytryptamine receptor 2B (P41595 whole entry): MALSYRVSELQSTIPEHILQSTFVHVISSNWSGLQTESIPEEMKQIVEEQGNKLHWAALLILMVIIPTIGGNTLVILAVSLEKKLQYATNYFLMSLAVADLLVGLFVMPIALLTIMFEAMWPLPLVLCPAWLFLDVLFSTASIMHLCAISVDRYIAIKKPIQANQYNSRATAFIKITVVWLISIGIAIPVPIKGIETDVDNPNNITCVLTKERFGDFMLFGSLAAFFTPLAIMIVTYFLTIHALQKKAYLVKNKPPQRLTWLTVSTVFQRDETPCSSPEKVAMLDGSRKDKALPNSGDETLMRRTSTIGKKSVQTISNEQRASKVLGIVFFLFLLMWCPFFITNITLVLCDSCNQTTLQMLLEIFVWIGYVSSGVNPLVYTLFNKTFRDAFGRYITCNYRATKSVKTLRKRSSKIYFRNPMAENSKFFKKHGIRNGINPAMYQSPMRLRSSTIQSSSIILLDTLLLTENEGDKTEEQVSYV

Broadly, the Emax is the greatest response seen or fitted, relative to the assay's reference. By EC50 is commonly meant the concentration giving half of the maximal effect. Read a low EC50 as an effect from little substance. As a reminder, the IC50 is the concentration at which inhibition is half-maximal. A higher IC50 goes with weaker potency. Regarding `COc1cc2c3c(c1OC)-c1ccccc1CC3N(C)CC2` (stereo not drawn) [(+/-)-NUCIFERINE], the Emax at D(2) dopamine receptor [1] is 67%. The same compound showed an EC50 in assay [2] of 0.15 µM. In addition, the values for the IC50 in [3] and in assay [4] were 0.478 µM and 0.131 µM, respectively.

Consider `CN1CCc2cc3c(c4c2[C@H]1Cc1ccccc1-4)OCO3`, for which the half-inhibitory concentration (IC50) is 18.8 µM on D(2) dopamine receptor [5], 8.32 µM at Acetylcholinesterase and 2.8 µM against Cholinesterase. Moreover, in the assay with SH-SY5Y, the Activity is 73%.

For `COc1ccc2c(c1)C[C@@H]1c3c(cc4c(c3-2)OCO4)CCN1C`, the IC50 against Acetylcholinesterase is 11.9 µM; against Cholinesterase it was 16.6 µM.

Turning to `COc1c(O)ccc2c1cc1c3c(cc4c(c32)OCO4)CCN1C`, the 50% inhibitory concentration (IC50) in the assay on BV-2 worked out at 39.2 µM.

As for `COc1cccc2c1[C@@H](O)[C@@H]1c3c(cc4c(c3-2)OCO4)CCN1C`, the figures for the half-maximal inhibitory concentration (IC50) on Acetylcholinesterase and on Cholinesterase were 6.12 µM and 5.87 µM, respectively.

Usually Ki stands for the equilibrium dissociation constant of an inhibitor or competing ligand from its target. `CN1CCc2ccc3c4c2[C@H]1Cc1cccc(c1-4)C3`: the Ki in assay [6] worked out at 0.0043 µM.

Compound `COc1ccc(OC)c2c1C[C@@H]1c3c(cc4c(c3-2)OCO4)CCN1C` showed a half-maximal inhibitory concentration (IC50) at D(2) dopamine receptor [5] of 18.3 µM.

For `COc1cc2c3c(c1OC)-c1ccccc1CC3NCC2` (stereo not drawn) [NORNUCIFERINE], the IC50 against D(1A) dopamine receptor amounted to 38.5 µM. Further, the concentration for a half-maximal effect (EC50) in assay [7] amounted to 0.308 µM. In [8], the Emax was determined as 65.6%.

Compound `COc1c(O)cc2c3c1-c1ccccc1CC3NCC2` (stereo not drawn) registered an IC50 against D(1A) dopamine receptor of 7.2 µM.

Compound `COc1c(O)cc2c3c1-c1ccccc1CC3N(C)CC2` (stereo not drawn) registered a half-maximal inhibitory concentration (IC50) in assay [9] of 19.6 µM.

In the case of `COc1cc2cc3c4c(cc5c(c4c2cc1OC)OCO5)CCN3C` [DEHYDRODICENTRINE], the IC50 came out at 1.09 µM against Acetylcholinesterase and 5.57 µM against Cholinesterase. Besides, the Ratio IC50 in [10], in assay [11] and in assay [12] was 4 in each case.

Usually Kb stands for the equilibrium dissociation constant of an antagonist, usually derived from a functional assay. For the compound `COc1cc2c(cc1OC)-c1c3c(cc4c1[C@H](C2)N(C)CC4)OCO3` [DICENTRINE], the IC50 against Acetylcholinesterase stood at 6.11 µM; against Cholinesterase it was 26.4 µM. Also, the Kb in assay [13] worked out at 0.0839 µM; in assay [14] it was 0.208 µM; in [15] it was 0.776 µM; in assay [16], 0.163 µM; in assay [17], 0.155 µM; in assay [18], 0.181 µM.
